# Laboratory results: article PMC6889545, “ALW peptide ameliorates lupus nephritis in MRL/lpr mice” (Arthritis Research & Therapy, 2019)
# Read-outs that look alike come from different tables or passages of the source. Non-standard residues stand in square brackets, D forms with d. Residues, ends and D or L forms follow the SMILES beside them.
# Columns and labels:
# [1] = Plasma pharmacokinetics of the peptides after a single dose; type: in vivo; conditions: 8-week-old male CD1 mice, single intravenous dose 12.5 mg/kg, plasma 0-24 h, LC-MS/MS, WinNonlin 6.1; for MRT: male, CD1, mouse, plasma, iv, 12.5 mg/kg; for clearance: read-out: Cl (plasma clearance); for Vd: read-out: Vss
# Method: (§1) Two 12-amino acid peptides (ALWPPNLHAWVP [ALW]; PLPHNPWVLAAW [PLP]) were synthetized by Sangon Biotech Company (China). The PLP peptide was a scrambled peptide with amino acid residues identical to ALW peptide. The first and last amino acids of both peptides are D-form, and the others are L-form. To study the pharmacokinetic characteristics of both peptides in vivo, 8-week-old male CD1 mice were administrated with ALW or PLP peptide at a single dose of 12.5 mg/kg. Plasma samples were collected at each time point before (0) and 0.083, 0.25, 0.5, 1, 2, 4, 8, and 24 h after administration. To assess the biodistribution of ALW peptide in vivo, tissues including the kidney, liver, and lung were collected at 0.083, 0.25, 0.5, 1, 2, and 4 h after administration. Then, the concentration of two peptides in mouse plasma and tissues were quantitatively determined by liquid chromatography-tandem mass spectrometry (LC-MS/MS). The pharmacokinetic parameters were calculated by WinNonlin 6.1 software according to the […] model.
# [2] = Tissue biodistribution of ALW peptide (kidney, liver, lung); type: in vivo, CD1 mice
# Method: as §1
# BALB/c mice = experiment: Induction of anti-dsDNA antibodies after intravenous peptide injection; type: in vivo, mouse; conditions: same dosages, frequencies and treatment period as MRL/lpr study, data not shown
# Source text: The ALW and PLP peptides were also intravenously injected into BALB/c mice with the same dosages, frequencies, and treatment period. […] All animal protocols were approved by the Hospital Research Ethics Committee.
# [3] = Solubility of the peptides; type: physicochemical; conditions: for Maximum solubility: injection solution in saline
# Method: For the in vivo study, 40 MRL/lpr mice were randomly divided into four groups. Mice in the ALW group (n = 12) received an intravenous injection of 100 μg/mL ALW peptide in saline every other day, mice in the PLP group (n = 12) were injected intravenously with 100 μg/mL PLP peptide in saline, mice in the NaCl group (n = 8) were given normal saline intravenously, and mice in the blank group (n = 8) were not treated. The dosages were decided in a preliminary experiment, showing that the concentration of anti-dsDNA IgG was about 34.74 ± 3.47 ng/mL in MRL/lpr mice aged 24 weeks. By calculating the molecular weights of anti-dsDNA IgG (150 kDa) to ALW peptide (1.4 kDa), the ALW concentration of 100 μg/mL is sufficient to maintain a high molar ratio (much higher than 5 times of anti-dsDNA IgG). In fact, the maximum solubility of PLP peptide is also 100 μg/mL, less than ALW peptide. Urine was collected every 2 weeks. Six weeks later, the mice were euthanized. Blood, urine, and kidneys were harvested for further analysis.
# anti-dsDNA IgGs = conditions: cited from earlier work
# Source text: The ALW peptide is a small molecule with a molecular weight of 1.4 kDa. […] Because there is no methionine, cysteine, and glutamine, which are related with the oxidation, cyclization, and degradation of peptides, ALW may have greater physiological stability. In addition, the ALW peptide has a relatively neutral net charge (pI = 7.38), which probably decrease unnecessary, nonspecific protein-protein interactions. […] Here, after chemical modification ...
# NZB×NZW F1 lupus mice = conditions: intravenous once a month; cited from earlier work
# Source text: (§2) Given the key role of anti-dsDNA antibodies in the pathogenesis of LN, development of specific inhibitors of anti-dsDNA antibodies may be a good method to manage LN. Several polypeptides, specifically reacting with mouse anti-dsDNA IgG2b, were identified by the peptide display phage library. […] FISLE-412, a small peptidomimetic modified from DWEYS peptide, blocked the binding of DNA to monoclonal mouse and human anti-dsDNA antibodies with improved affinity and selectivity. In ...
# murine model = conditions: cited from earlier work
# Source text: as §2, with “IgG2a and IgG3 had higher affinity for autoantigens in the kidney, followed by IgG1, IgG2b, and IgM [12]. DWEYS peptide (DWEYSVWLSN) is a DNA-mimic peptide screened by a mouse pathogenic monoclonal antibody (IgG2b, R4A clone). […] FISLE-412, a peptide compound mimicking the molecular structure of DWEYS ... || Given” for “Given”
# [4] = read-out: MRT0-inf (mean residence time) in plasma
# [5] = 8-week-old male CD1 mice, single intravenous dose 12.5 mg/kg, kidney tissue 0.083-4 h, LC-MS/MS, WinNonlin 6.1
# [6] = 8-week-old male CD1 mice, single intravenous dose 12.5 mg/kg, liver tissue 0.083-4 h, LC-MS/MS, WinNonlin 6.1
# [7] = 8-week-old male CD1 mice, single intravenous dose 12.5 mg/kg, lung tissue 0.083-4 h, LC-MS/MS, WinNonlin 6.1
compound,measurement,setting,value
CC(C)C[C@H](NC(=O)[C@H](CC(N)=O)NC(=O)[C@@H]1CCCN1C(=O)[C@@H]1CCCN1C(=O)[C@H](Cc1c[nH]c2ccccc12)NC(=O)[C@H](CC(C)C)NC(=O)[C@@H](C)N)C(=O)N[C@@H](Cc1c[nH]cn1)C(=O)N[C@@H](C)C(=O)N[C@@H](Cc1c[nH]c2ccccc12)C(=O)N[C@H](C(=O)N1CCC[C@@H]1C(=O)O)C(C)C [ALW peptide] (H-[dA]LWPPNLHAWV[dP]-OH),AUC0-inf in plasma,[1],264 ng·h/mL
same,AUC0-last in plasma,[1],258 ng·h/mL
same,MRT0-inf (mean residence time) in plasma,[1],7.8 min
same,T1/2 (elimination half-life) in plasma,[1],18.9 min
same,MRT,[1]; [4],7.8 min
same,MRT,[1]; read-out: MRT0-last in plasma,6 min
same,C0,[1]; mouse,3640 ng/mL
same,clearance,[1]; mouse,789 mL/min/kg
same,half-life,"[1]; mouse, read-out: T1/2 (elimination half-life) in plasma (converted)",19.2 min
same,Vd,[1]; mouse,6.16 L/kg
same,AUC0-inf in kidney,[2]; [5],28.80 ng·h/g
same,AUC0-last in kidney,[2]; [5],25.51 ng·h/g
same,Cmax in kidney,[2]; [5],60.00 ng/g
same,MRT0-inf in kidney,[2]; [5],27.6 min
same,MRT0-last in kidney,[2]; [5],19.8 min
same,T1/2 in kidney,[2]; [5],18.6 min
same,Tmax in kidney,[2]; [5],4.8 min
same,"Kp, kidney","[2]; 8-week-old male CD1 mice, single intravenous dose 12.5 mg/kg, kidney versus plasma",0.11
same,AUC0-last in liver,[2]; [6],2.29 ng·h/g
same,Cmax in liver,[2]; [6],11.80 ng/g
same,MRT0-last in liver,[2]; [6],8.4 min
same,Tmax in liver,[2]; [6],4.8 min
same,"Kp, liver","[2]; 8-week-old male CD1 mice, single intravenous dose 12.5 mg/kg, liver versus plasma",0.01
same,AUC0-last in lung,[2]; [7],5.10 ng·h/g
same,Cmax in lung,[2]; [7],7.33 ng/g
same,MRT0-last in lung,[2]; [7],29.4 min
same,Tmax in lung,[2]; [7],15 min
same,"Kp, lung","[2]; 8-week-old male CD1 mice, single intravenous dose 12.5 mg/kg, lung versus plasma",0.02
same,Renal tissue exposure as share of plasma exposure,"[2]; CD1 mice, intravenous 12.5 mg/kg, kidney",approximately 11.2%
same,Liver tissue exposure as share of plasma exposure,"[2]; CD1 mice, intravenous 12.5 mg/kg, liver",0.892%
same,Lung tissue exposure as share of plasma exposure,"[2]; CD1 mice, intravenous 12.5 mg/kg, lung",1.99%
same,Anti-dsDNA antibodies in sera after treatment (immunogenicity),BALB/c mice,induced no anti-dsDNA antibodies
same,Anti-dsDNA antibodies in sera after treatment (immunogenicity),BALB/c mice; listed as ALW,no detectable anti-dsDNA antibodies
same,Maximum solubility,[3],> 100 µg/mL
same,Solubility in water or PBS,[3]; water or PBS,easy to dissolve in water or PBS
same,Resistance of the peptide to catalysis,anti-dsDNA IgGs; after substituting two terminal residues A and P with D-form ones,enhanced
same,Catalysis of the peptide by anti-dsDNA IgGs,anti-dsDNA IgGs; unmodified peptide,catalyzed weakly
"FIEWNKLRFRQGLEW [pCons, 15-mer peptide based on MHC class I and II T cell determinants in the VH region of murine anti-dsDNA IgG2a or IgG2b]",Emergence of multiple autoantibodies,NZB×NZW F1 lupus mice,delayed the emergence of multiple autoantibodies
"CC(C)C[C@H](NC(=O)[C@@H](NC(=O)[C@H](Cc1c[nH]c2ccccc12)NC(=O)[C@@H]1CCCN1C(=O)[C@H](CC(N)=O)NC(=O)[C@H](Cc1c[nH]cn1)NC(=O)[C@@H]1CCCN1C(=O)[C@H](CC(C)C)NC(=O)[C@H]1CCCN1)C(C)C)C(=O)N[C@@H](C)C(=O)N[C@@H](C)C(=O)N[C@H](Cc1c[nH]c2ccccc12)C(=O)O [PLP peptide, reference compound] (H-[dP]LPHNPWVLAA[dW]-OH)",MRT0-inf (mean residence time) in plasma,[1],13.6 min
same,MRT,[1]; [4],13.8 min
same,MRT,[1]; read-out: MRT0-last in plasma,11.4 min
same,C0,[1]; mouse,85400 ng/mL
same,AUC(0-inf),"[1]; mouse, read-out: AUC0-inf in plasma",14100 ng·h/mL
same,AUC(0-t),"[1]; mouse, read-out: AUC0-last in plasma",14100 ng·h/mL
same,clearance,[1]; mouse,14.7 mL/min/kg
same,Vd,[1]; mouse,0.2 L/kg
same,Anti-dsDNA antibodies in sera after treatment (immunogenicity),BALB/c mice,no detectable anti-dsDNA antibodies
same,Maximum solubility,[3],100 µg/mL
"DWEYSVWLSN [DWEYS peptide, DNA-mimic peptide … screened by a mouse pathogenic monoclonal antibody (IgG2b, R4A clone)]",Renal deposition of IgG2b,murine model; SCID mice,protected SCID mice from the renal deposition of IgG2b
same,Renal IgG deposition,"murine model; murine model, intraperitoneal administration",evidently depressed
